Experimental data as given in patent publication US11369565B2, “Amino-pyrimidine skeletal muscle modulators” (Cytokinetics, Inc., priority 2010, dated 2022).

Tested on: rabbit skeletal myofibrils (approximately 90% fast fibers)
Test: Activation of fast skeletal myofibrils (PUMA coupled-enzyme ATPase assay at pCa25)
Assay type: biochemical
Settings: concentration at which the compound increased the enzymatic activity by 40%; calcium at pCa25; PM12 buffer pH 6.8
Method: Preparation of fast skeletal myofibrils. Rabbit skeletal myofibrils were prepared based upon the method of Herrmann et al. (Biochem. 32(28):7255-7263(1993). Myofibrils were prepared from rabbit psoas muscle purchased from Pel-Freez Biologicals (Arkansas) within 2 days of ordering, stored on ice. Minced muscle was homogenized in 10 volumes of ice-cold “standard” buffer (50 mM Tris, pH 7.4, 0.1 M potassium acetate, 5 mM KCl, 2 mM DTT, 0.2 mM PMSF, 10 μM leupeptin, 5 μM pepstatin, and 0.5 mM sodium azide) containing 5 mM EDTA and 0.5% Triton X-100 using an Omni-Macro homogenizer. Myofibrils were recovered by low speed centrifugation (3000 rpm for 10 minutes) and washed 2 times in the Triton X-100 containing buffer to ensure removal of cellular membrane. Following the Triton washes, myofibrils were washed 3 times in “standard” buffer containing 2 mM magnesium acetate. A final wash in assay buffer (12 mM PIPES, pH 6.8, 60 mM KCl, 1 mM DTT) was performed and brought to 10% sucrose for flash freezing in liquid nitrogen and storage at −80° C.
Activation of Fast Skeletal Myofibrils. Fast fiber activators were identified by measuring the enzymatic activity of muscle myofibril preparations using the proprietary PUMA™ (see, e.g., U.S. Pat. Nos. 6,410,254, 6,743,599, 7,202,051, and 7,378,254) assay system. Myofibril preparations consisted of rabbit skeletal muscle (approximately 90% fast fibers) that had been mechanically homogenized and washed with a detergent (triton X-100) to remove cellular membranes. This preparation retained all of the sarcomeric components in a native conformation and the enzymatic activity was still regulated by calcium. Compounds were tested using a myofibril suspension and a level of calcium sufficient to increase enzymatic activity of the myofibrils to 25% of their maximal rate (termed pCa25). Enzymatic activity was tracked via a pyruvate kinase and lactate dehydrogenase-coupled enzyme system. This assay regenerates myosin-produced ADP into ATP by oxidizing NADH, producing an absorbance change at 340 nm. The buffering system was 12 mM Pipes, 2 mM MgCl2, 1 mM DTT at pH 6.8 (PM12 buffer).

| Mean AC1.4 | Compound |
| --- | --- |
| D (D=>20 uM) | Fc1cccnc1C1(Nc2ncc3cc(Br)ccc3n2)CCC1 [(6-bromoquinazolin-2-yl)[(3-fluoro(2-pyridyl))cyclobutyl]amine] |
| A (A=<1 uM) | NC(=O)c1ccc(F)c(-c2cnc(NCC3(c4ncccc4Cl)CC(F)(F)C3)nc2)c1 [3-[2-({[1-(3-chloro(2-pyridyl))-3,3-difluorocyclobutyl]methyl}amino)pyrimidin-5-yl]-4-fluorobenzamide] |
| D (D=>20 uM) | CCOC(=O)c1nnc(-c2cnc(NC(C)(C)c3ncccc3Cl)nc2)o1 [ethyl 5-(2-{[1-(3-chloro(2-pyridyl))-isopropyl]amino}pyrimidin-5-yl)-1,3,4-oxadiazole-2-carboxylate] |
| 6 µM | CS(=O)(=O)N1CC(NC(=O)c2ccc(F)c(-c3cnc(NC[C@]4(c5ncccc5F)C[C@H](F)C4)nc3)c2)C1 [{4-fluoro-3-[2-({[3-fluoro-1-(3-fluoro(2-pyridyl))cyclobutyl)]methyl}amino)pyridin-5-yl]phenyl}-N-[1-(methylsulfonyl)azetidin-3-yl]carboxamide] |
| D (D=>20 uM) | O=C(Nc1ccccc1F)c1cnc(NCC2(c3ncccc3F)CCC2)nc1 [[2-({[(3-fluoro(2-pyridyl))cyclobutyl]methyl}amino)pyrimidin-5-yl]-N-(2-fluorophenyl)carboxamide] |
| D (D=>20 uM) | COc1ccnc(C(C)(C)Nc2ncc(-c3ncc(C(N)=O)s3)cn2)n1 [2-(2-{[1-(4-methoxypyrimidin-2-yl)-isopropyl]amino}pyrimidin-5-yl)-1,3-thiazole-5-carboxamide] |
| B (B=1-10 uM) | CC(C)(CNc1ncc(-c2cc(C(N)=O)ccc2F)cn1)c1ncccc1F [4-fluoro-3-(2-{[2-(3-fluoro(2-pyridyl))-2-methylpropyl]amino}pyrimidin-5-yl)benzamide] |
| D (D=>20 uM) | O=C(O)c1cnc(NC2(c3ncccc3F)CCC2)nc1C(F)(F)F [2-{[(3-fluoro(2-pyridyl))cyclobutyl]amino}-4-(trifluoromethyl)pyrimidine-5-carboxylic acid] |
| A (A=<1 uM) | CSc1ccccc1C(C)(C)Nc1ncc(-c2cccc(C(N)=O)c2)cn1 [3-(2-{[1-methyl-1-(2-methylthiophenyl)ethyl]amino}pyrimidin-5-yl)benzamide] |
| D (D=>20 uM) | CC(C)(Nc1ncc(-n2cc(C(=O)NCCC(N)=O)cn2)cn1)c1ncccc1Cl [N-(2-carbamoylethyl)[1-(2-{[1-(3-chloro)(2-pyridyl))-isopropyl]amino}pyrimidin-5-yl)pyrazol-4-yl]carboxamide] |
| D (D=>20 uM) | CC(C)(Nc1ncc(-n2cc(C(=O)O)cn2)cn1)c1ncccc1Cl [1-(2-{[1-(3-chloro(2-pyridyl))-isopropyl]amino}pyrimidin-5-yl)pyrazole-4-carboxylic acid] |
| D (D=>20 uM) | CC(C)(CNc1ncc(C(=O)NC2(C(N)=O)CC2)cn1)c1ccc(F)cc1 [1-[(2-{[2-(4-fluorophenyl)-2-methylpropyl]amino}pyrimidin-5-yl)carbonylamino] cyclopropanecarboxamide] |
| A (A=<1 uM) | CC(C)(CNc1ncc(-c2ccc3[nH]nc(N)c3c2)cn1)c1ccc(F)cc1 [[5-(3-amino(1H-indazol-5-yl))pyrimidin-2-yl][2-(4-fluorophenyl)-2-methylpropyl]amine] |
| D (D=>20 uM) | CC(C)(Nc1ncc(C#N)cn1)c1ncccc1Cl [2-{[1-(3-chloro(2-pyridyl))-isopropyl]amino}pyrimidine-5-carbonitrile] |
| D (D=>20 uM) | CC(C)(CNc1ncc2c(n1)CN(C(N)=O)CC2)c1ccc(F)cc1 [2-{[2-(4-fluorophenyl)-2-methylpropyl]amino}-5,6,7,8-tetrahydropyridino[3,4-d]pyrimidine-7-carboxamide] |
| A (A=<1 uM) | CC(C)(Nc1ncc(-c2cc(C(N)=O)ccc2F)cn1)c1cccc(OC(F)F)n1 [3-[2-({1-[6-(difitioromethoxy)(2-pyridyl)]-isopropyl}amino)pyrimidin-5-yl]-4-fluorobenzamide] |
| B (B=1-10 uM) | CNC(=O)c1ccnc(-c2cnc(NC[C@]3(c4ncccc4F)C[C@H](F)C3)nc2)c1 [{2-[2-({[3-fluoro-1-(3-fluoro(2-pyridyl))cyclobutyl]methyl}amino)pyrimidin-5-yl](4-pyridyl)}-N-methylcarboxamide] |

| Mean AC1.4 | Compound |
| --- | --- |
| D (D=>20 uM) | Fc1cccnc1C1(Nc2nccc(C(F)(F)F)n2)CCC1 [[(3-fluoro(2-pyridyl))cyclobutyl][4-(trifluoromethyl)pyrimidin-2-yl]amine] |
| D (D=>20 uM) | C[S+]([O-])c1cccnc1C(C)(C)Nc1ncc(-c2cccc(C(N)=O)c2)cn1 (stereo not shown) [3-(2-(2-(3-(methylsulfinyl)pyridin-2-yl)propan-2-ylamino)pyrimidin-5-yl)benzamide] |
| B (B=1-10 uM) | CS(=O)(=O)NCc1cnc(-c2cnc(NCC3(c4ncccc4F)CCC3)nc2)s1 [({2-[2-({[(3-fluoro(2-pyridyl))cyclobutyl]methyl}amino)pyrimidin-5-yl](1,3-thiazol-5-yl)}methyl)(methylsulfonyl)amine] |
| B (B=1-10 uM) | Nc1ncc(-c2cnc(NC[C@]3(c4ncccc4F)C[C@H](F)C3)nc2)cn1 [[5-(2-aminopyrimidin-5-yl)]pyrimidin-2-yl]{[3-fluoro-1-(3-fluoro(2-pyridyl))cyclobutyl]methyl}amine] |
| A (A=<1 uM) | NC(=O)c1ccc(O)c(-c2cnc(NC[C@]3(c4ncccc4F)C[C@H](F)C3)nc2)c1 [3-[2-({[3-fluoro-1-(3-fluoro(2-pyridyl))cyclobutyl]methyl}amino)pyrimidin-5-yl]-4-hydroxybenzamide] |
| D (D=>20 uM) | N#Cc1ccnc(NC2(c3ccc(F)cc3)CCC2)n1 [2-{[(4-fluorophenyl)cyclobutyl]amino} pyrimidine-4-carbonitrile] |
| B (B=1-10 uM) | CC(C)(Nc1ncc(-c2ncc(CNC(=O)c3c[nH]c(O)n3)s2)cn1)c1ncccc1Cl [N-{[2-(2-{[1-(3-chloro(2-pyridyl))-isopropyl]amino}pyrimidin-5-yl)(1,3-thazol-5-yl)]methyl}(2-hydroxyimidazol-4-yl)carboxamide] |
| D (D=>20 uM) | NC(=O)c1cnc(NCC2(c3ncccc3F)CCC2)nc1 [2-({[(3-fluoro-2-pyridyl)cyclobutyl]methyl}amino) pyrimidine-5-carboxamide] |
| D (D=>20 uM) | CC(C)(Nc1ncc(-c2ncc(C#N)s2)cn1)c1ncccc1F [2-(2-{[1-(3-fluoro(2-pyridyl))-isopropyl]amino}pyrimidin-5-yl)-1,3-thiazole-5-carbonitrile] |
| B (B=1-10 uM) | CNC(=O)c1ccc(F)c(-c2cnc(NCC3(c4ncccc4F)CCC3)nc2)c1 [{4-fluoro-3-[2-({[(3-fluoro(2-pyridyl))cyclobutyl]methyl}amino)pyrimidin-5-yl]phenyl}-N-methylcarboxamide] |
| D (D=>20 uM) | CC(C)(Nc1ncc(-n2cc(C(=O)NCCO)cn2)cn1)c1ncccc1Cl [[1-(2-{[1-(3-chloro(2-pyridyl))-isopropyl]amino}pyrimidin-5-yl)pyrazol-4-yl]-N-(2-hydroxyethyl)carboxamide] |
| B (B=1-10 uM) | NC(=O)c1cc(-c2cnc(NC3(c4ncccc4F)CCC3)nc2)ccn1 [4-(2-{[(3-fluoro-2-pyridyl)cyclobutyl]amino}pyrimidin-5-yl)pyridine-2-carboxamide] |
| A (A=<1 uM) | Fc1ccccc1-c1cnc(NC[C@]2(c3ncccc3F)C[C@H](F)C2)nc1 [{[3-fluoro-1-(3-fluoro(2-pyridyl))cyclobutyl]methyl}[5-(2-fluorophenyl)pyrimidin-2-yl]amine] |
| A (A=<1 uM) | NC(=O)c1ccc(F)c(-c2cnc(NCC3(c4ncccc4F)CCC3)nc2)c1 [4-fluoro-3-[2-({[(3-fluoro(2-pyridyl))cyclobutyl]methyl}amino)pyrimidin-5-yl]benzamide] |
| C (C=10-20 uM) | N#Cc1cnc(-c2cnc(NCC3(c4ncccc4F)CCC3)nc2)s1 [2-[2-({[(3-fluoro-2-pyridyl)cyclobutyl]methyl}amino)pyrimidin-5-yl]-1,3-thiazole-5-carbonitrile] |
| D (D=>20 uM) | CC(C)(Nc1ncc(-c2nc(CNC(=O)[C@@H]3CCCN3)cs2)cn1)c1ncccc1F [((2S)pyrrolidin-2-yl)-N-{[2-(2-{[1-(3-fluoro(2-pyridyl))-isopropyl]amino}pyrimidin-5-yl)(1,3-thiazol-4-yl)]methyl}carboxamide] |

| Compound | Mean AC1.4 |
| --- | --- |
| CC(C)(C)OC(=O)NCc1cnc(-c2cnc(NCC3(c4ncccc4Cl)CCC3)nc2)s1 [(tert-butoxy)-N-({2-[2-({[(3-chloro(2-pyridyl))cyclobutyl]methyl}amino)pyrimidin-5-yl](1,3-thiazol-5-yl)}methyl)carboxamide] | A (A=<1 uM) |
